test system: Glucose-6-phosphat-Dehydrogenase; test: Conversion of different hexoses by glucose-6-phosphate dehydrogenase in the presence of NADP+ (photometric); assay type: biochemical; conditions: Hexose 50 mmol/l, G6P-DH 10 U/ml, NADP+ added, 37 °C, 340 nm, ca. 40 min, Imidazol·HCl pH 6,6
Description: Beispiel 1: Umsetzung verschiedener Hexosen mit Glucose-6-phosphat-Dehydrogenase in Gegenwart von NADP^+
Testansatz: Es wurden in einer Küvette mit einer Schichtdicke von 1 cm jeweils 1,0 ml Reagenz A mit 0,1 ml Reagenz B vermischt und mit einem Spektralphotometer bei 37 °C und 340 nm der Extinktionsverlauf über ca. 40 min verfolgt.

| Compound | NADPH-Bildung (Extinktionsverlauf) |
| --- | --- |
| Mannose | keine Extinktionsveränderung meßbar |
| Glucose [reference compound] | signifikante NADPH-Bildung |
| O=C(CO)[C@@H](O)[C@H](O)[C@H](O)CO [Fructose] | keine Extinktionsveränderung meßbar |

— patent EP0913483A2, “Method and reagent for the determination of creatine kinase” (Roche Diagnostics GmbH, priority 1997, dated 1999)
